In patent publication US20250154172A1, “PRMT5 INHIBITORS AND USES THEREOF” (Gilead Sciences, Inc., priority 2023, published 2025):

system: HCT116 MTAP-deleted cell lines; assay: Cell viability assay for HCT116 isogenic pair (CellTitre-Glo, 7 days); assay type: cell-based; details: Homo sapiens, HCT-116, 168 h, 7 days of treatment, cell line not given
Description: Control compounds were analyzed in parallel each time for quality control.
In Brief, on Day −1, a serial dilution of stock compounds in DMSO was performed using BioMek liquid handlers and dispensed using Echo acoustic dispenser into 384 well plates. Both tool compounds and sample compounds were spotted in the same plate for a dose response of PRMT5 inhibitors. Compound plates were stored as frozen until the cells were ready for seeding.
On Day 0, 100 HCT WT or HCT116 MTAP-deleted cells were seeded in compound-containing 384 well plates (50 μl per well) in RPMI 1640 media supplemented with 10% heat inactivated fetal bovine serum, Glutamax and penicillin streptomycin using EL460 liquid dispenser 5 μl cassette (BioTek, part no. 7170011). After equilibrating the plate in room temperature, the cells were incubated for 7 days inside the sealed incubator set at 37° C. with 90% humidity and 5% CO2.
On Day 7, the viability of cells was measured using a CTG assay kit (CellTitre-Glo; Promega cat no. G7573). Shortly, 40 μl per well of luminescent cell viability assay reagent were dispensed using EL460 liquid dispenser 5 μl cassette. CTG luminescence signal was measured using an EnVision plate reader (PerkinElmer) in accordance with manufacturer's instruction. The CCso values for each compound after 7 days of treatment were calculated using 4 parameter non-linear logistical curve fit.
For the cell viability assay ie CC50 shown in nM in Table 3.

Row | SMILES | CC50 [nM]
1 | C[C@H]1CN(C(=O)c2cc3c(cn2)nc(N)c2cnn(C)c23)[C@H]2c3ccc(C(F)(F)F)cc3C[C@H]2O1 [Example Ca-13, (4-amino-1-methyl-1H-pyrazolo[4,3-c][1,7]naphthyridin-8-yl)((2S,4aS,9aR)-2-methyl-7-(trifluoromethyl)-2,3,9,9a-tetrahydroindeno[2,1-b][1,4]oxazin-4(4aH)-yl)methanone] | 17
2 | C[C@H]1CN(C(=O)c2cc3c(cn2)nc(N)c2cnn(C)c23)[C@H]2c3ccc(Br)c(F)c3C[C@H]2O1 (single isomer, unassigned) [Example Ca-31] | 32
3 | Nc1nc2cnc(C(=O)N3CC[C@H]4C[C@@H]3c3c(F)cc(C(F)(F)F)cc3O4)cc2c2c1COC2 [Example Ca-59, (4-amino-1,3-dihydrofuro[3,4-c][1,7]naphthyridin-8-yl)((2S,6R)-7-fluoro-9-(trifluoromethyl)-3,4-dihydro-2H-2,6-methanobenzo[b][1,5]oxazocin-5(6H)-yl)methanone] | 17
4 | Cn1ncc2c(N)nc3ccc(C(=O)N4CCO[C@@H]5Cc6cc(Br)ccc6[C@@H]54)cc3c21 (racemic) [Example Ca-12, (Rac)-(4-amino-1-methyl-1H-pyrazolo[4,3-c]quinolin-8-yl)(7-bromo-2,3,9,9a-tetrahydroindeno[2,1-b][1,4]oxazin-4(4aH)-yl)methanone] | 53
5 | C[C@@H]1C[C@@H]2CCc3cc(C(F)(F)F)ccc3[C@@H]2N(C(=O)c2cc3c4c(c(N)nc3cn2)COC4)C1 (racemic) [Example Ca-40, (Rac)-(4-amino-1,3-dihydrofuro[3,4-c][1,7]naphthyridin-8-yl)((3R,4aS,10bR)-3-methyl-8-(trifluoromethyl)-3,4,4a,5,6,10b-hexahydrobenzo[h]quinolin-1(2H)-yl)methanone] | 179
6 | Cn1ncc2c(N)nc3cnc(C(=O)N4CCC5CC4c4ccc(C(F)(F)F)cc45)cc3c21 (racemic) [Example Ca-14, (Rac)-(4-amino-1-methyl-1H-pyrazolo[4,3-c][1,7]naphthyridin-8-yl)((1R,5S)-7-(trifluoromethyl)-1,3,4,5-tetrahydro-2H-1,5-methanobenzo[c]azepin-2-yl)methanone] | 16
7 | C[C@@H]1C[C@@H]2Oc3cc(C(F)(F)F)ccc3[C@@H]2N(C(=O)c2cc3c(cn2)nc(N)c2cnn(C)c23)C1 [Example Ca-17, (4-amino-1-methyl-1H-pyrazolo[4,3-c][1,7]naphthyridin-8-yl)((3R,4aS,9bS)-3-methyl-7-(trifluoromethyl)-3,4,4a,9b-tetrahydrobenzofuro[3,2-b]pyridin-1(2H)-yl)methanone] | 7
8 | C[C@@H]1CN(C(=O)c2cc3c(cn2)nc(N)c2cnn(C)c23)[C@H]2c3ccc(Cl)cc3C[C@H]2O1 (single isomer, unassigned) [Example Ca-37] | 22
9 | C[C@@H]1CN(C(=O)c2cc3c(cn2)nc(N)c2cnn(C)c23)[C@H]2c3ccc(Br)cc3C[C@H]2O1 [Example Ca-50, (4-amino-1-methyl-1H-pyrazolo[4,3-c][1,7]naphthyridin-8-yl)((2R,4aS,9aR)-7-bromo-2-methyl-2,3,9,9a-tetrahydroindeno[2,1-b][1,4]oxazin-4(4aH)-yl)methanone] | 20
10 | Cn1ncc2c(N)nc3cc(F)c(C(=O)N4CCC[C@@H]5Oc6cc(-c7cnn(C(F)(F)F)c7)ccc6[C@@H]54)cc3c21 [Example Ca-56, (4-amino-7-fluoro-1-methyl-1H-pyrazolo[4,3-c]quinolin-8-yl)((4aS,9bS)-7-(1-(trifluoromethyl)-1H-pyrazol-4-yl)-3,4,4a,9b-tetrahydrobenzofuro[3,2-b]pyridin-1(2H)-yl)methanone] | 4
11 | Cn1ncc2c3cc(C(=O)N4CC[C@H]5C[C@@H]4c4ccc(C(F)(F)F)cc4O5)ncc3nc(N)c21 [Example Ca-44, (4-amino-3-methyl-3H-pyrazolo[3,4-c][1,7]naphthyridin-8-yl)((2S,6R)-9-(trifluoromethyl)-3,4-dihydro-2H-2,6-methanobenzo[b][1,5]oxazocin-5(6H)-yl)methanone] | 139
12 | Cn1ncc2c(N)nc3cnc(C(=O)N4CCC[C@@H]5Oc6c(ccc(OC(F)(F)F)c6F)[C@@H]54)cc3c21 [Example Ca-7, (4-amino-1-methyl-1H-pyrazolo[4,3-c][1,7]naphthyridin-8-yl)((4aS,9bS)-6-fluoro-7-(trifluoromethoxy)-3,4,4a,9b-tetrahydrobenzofuro[3,2-b]pyridin-1(2H)-yl)methanone] | 13
13 | Nc1nc2cnc(C(=O)N3CC[C@H]4C[C@@H]3c3ccc(OC(F)(F)F)cc3O4)cc2c2c1COC2 [Example Ca-46, (4-amino-1,3-dihydrofuro[3,4-c][1,7]naphthyridin-8-yl)((2S,6R)-9-(trifluoromethoxy)-3,4-dihydro-2H-2,6-methanobenzo[b][1,5]oxazocin-5(6H)-yl)methanone] | 25
14 | Cn1ncc2c(N)nc3ccc(C(=O)N4CCO[C@@H]5Cc6cc(C(F)(F)F)ccc6[C@@H]54)cc3c21 (racemic) [Example Ca-11, (Rac)-(4-amino-1-methyl-1H-pyrazolo[4,3-c]quinolin-8-yl)(7-(trifluoromethyl)-2,3,9,9a-tetrahydroindeno[2,1-b][1,4]oxazin-4(4aH)-yl)methanone] | 65
15 | C[C@H]1CN(C(=O)c2cc3c(cn2)nc(N)c2cnn(C)c23)[C@H]2c3ccc(Cl)cc3C[C@H]2O1 (single isomer, unassigned) [Example Ca-38] | 129
16 | C[C@H]1CN(C(=O)c2cc3c4c(c(N)nc3cn2)COC4)[C@H]2c3ccc(C(F)(F)F)cc3C[C@H]2O1 [Example Cb-1, (4-amino-1,3-dihydrofuro[3,4-c][1,7]naphthyridin-8-yl)((2S,4aS,9aR)-2-methyl-7-(trifluoromethyl)-2,3,9,9a-tetrahydroindeno[2,1-b][1,4]oxazin-4(4aH)-yl)methanone] | 71
17 | Nc1nc2cnc(C(=O)N3CCC[C@@H]4Cc5cc(C(F)(F)F)ccc5[C@@H]43)cc2c2c1COC2 (racemic) [Example Ca-23, (Rac)-(4-amino-1,3-dihydrofuro[3,4-c][1,7]naphthyridin-8-yl)((4aR,9bR)-7-(trifluoromethyl)-2,3,4,4a,5,9b-hexahydro-1H-indeno[1,2-b]pyridin-1-yl)methanone] | 134
18 | Cn1ncc2c(N)nc3ccc(C(=O)N4CCOC5CCc6ccccc6C54)cc3c21 (stereo not shown) [Example Ca-20, 2,3,4a,5,6,10b-hexahydrobenzo[f][1,4]benzoxazin-1-yl-(4-amino-1-methyl-pyrazolo[4,3-c]quinolin-8-yl)methanone] | 46
19 | Cn1ncc2c(N)nc3cc(F)c(C(=O)N4CCO[C@@H]5Cc6cc(C(F)(F)F)ccc6[C@@H]54)cc3c21 (racemic) [Example Ca-10, (Rac)-(4-amino-7-fluoro-1-methyl-1H-pyrazolo[4,3-c]quinolin-8-yl)(7-(trifluoromethyl)-2,3,9,9a-tetrahydroindeno[2,1-b][1,4]oxazin-4(4aH)-yl)methanone] | 10
20 | C[C@@H]1CC[C@@H]2Oc3cc(OC(F)(F)F)ccc3[C@@H]2N1C(=O)c1cc2c(cn1)nc(N)c1cnn(C)c12 (racemic) [Example Ca-41, (Rac)-(4-amino-1-methyl-1H-pyrazolo[4,3-c][1,7]naphthyridin-8-yl)((2R,4aS,9bS)-2-methyl-7-(trifluoromethoxy)-3,4,4a,9b-tetrahydrobenzofuro[3,2-b]pyridin-1(2H)-yl)methanone] | 30
21 | Cn1ncc2c(N)nc3cnc(C(=O)N4CCO[C@@H]5Cc6cc(C7CC7)ccc6[C@@H]54)cc3c21 [Example Ca-34, (4-amino-1-methyl-1H-pyrazolo[4,3-c][1,7]naphthyridin-8-yl)((4aS,9aR)-7-cyclopropyl-2,3,9,9a-tetrahydroindeno[2,1-b][1,4]oxazin-4(4aH)-yl)methanone] | 62
22 | Cc1ccc2c(c1)C[C@H]1OCCN(C(=O)c3cc4c(cn3)nc(N)c3cnn(C)c34)[C@@H]21 [Example Ca-36, (4-amino-1-methyl-1H-pyrazolo[4,3-c][1,7]naphthyridin-8-yl)((4aS,9aR)-7-methyl-2,3,9,9a-tetrahydroindeno[2,1-b][1,4]oxazin-4(4aH)-yl)methanone] | 95
23 | C[C@@H]1CN(C(=O)c2cc3c(cn2)nc(N)c2cnn(C)c23)[C@H]2c3ccc(C(F)(F)F)cc3C[C@H]2O1 [Example Ca-49, (4-amino-1-methyl-1H-pyrazolo[4,3-c][1,7]naphthyridin-8-yl)((2R,4aS,9aR)-2-methyl-7-(trifluoromethyl)-2,3,9,9a-tetrahydroindeno[2,1-b][1,4]oxazin-4(4aH)-yl)methanone] | 26
24 | Cn1ncc2c(N)nc3cnc(C(=O)N4CCC[C@@H]5Oc6cc(OC(F)F)c(F)cc6[C@@H]54)cc3c21 (racemic) [Example Ca-21, (Rac)-(4-amino-1-methyl-11H-pyrazolo[4,3-c][1,7]naphthyridin-8-yl)(7-(difluoromethoxy)-8-fluoro-3,4,4a,9b-tetrahydrobenzofuro[3,2-b]pyridin-1(2H)-yl)methanone] | 15
25 | Cn1ncc2c(N)nc3cc(F)c(C(=O)N4CCC[C@@H]5Oc6cc(C(F)(F)F)ccc6[C@@H]54)cc3c21 [Example Ca-4, (4-amino-7-fluoro-1-methyl-1H-pyrazolo[4,3-c]quinolin-8-yl)((4aS,9bS)-7-(trifluoromethyl)-3,4,4a,9b-tetrahydrobenzofuro[3,2-b]pyridin-1(2H)-yl)methanone] | 3
